Assay results: patent US20220275018A1, “NOVEL SPIROBICYCLIC INTERMEDIATES” (Janssen Pharmaceutica NV, priority 2019, published 2022)

Tested on: not given
Assay: not given
Settings: not given

Structure (SMILES) | melting point [°C]
CC1(C)O[C@H]2OC3(CC(=O)C3)[C@@H](OCc3ccc4ccccc4c3)[C@H]2O1 [Compound 66.4] | 101.79
C=C1O[C@@H]2OC(C)(C)O[C@@H]2[C@@H]1OCc1ccc2ccccc2c1 [Compound 66.2] | 102.01

Biological target: human PRMT5 complex enzyme (Homo sapiens, UniProt O14744)
Assay: PRMT5 inhibition study ([3H]SAM / Histone H4 methylation, filter scintillation counting)
Type: biochemical
Settings: 30 μM test compound; 120 min at 22° C.; 600 nM [3H]SAM, 250 nM Histone H4 full length; percent inhibition of the control enzyme activity
Procedure: The test compound, reference compound, or water (control) were incubated for 120 min at 22° C. with about 200 ng human PRMT5 complex enzyme, 600 nM [^3H]SAM and 250 nM Histone H4 full length in a buffer containing 45 mM Tris-HCl (pH 9), 45 mM NaCl, 4.5 mM MgCl2 and 3.6 mM DTT (Dithiothreitol).
For control basal measurements, the enzyme was omitted from the reaction mixture. Following incubation, the reaction was stopped by adding 33 mM citric acid and the samples were filtered rapidly in vacuo through glass fiber filters (GF/B, Packard) presoaked with 33 mM citric acid and rinsed several times with ice-cold 33 mM citric acid using a 96-sample cell harvester (Unifilter, Packard). The filters were dried then counted for radioactivity in a scintillation counter (Topcount, Packard) using a scintillation cocktail (Microscint 0, Packard).
The results were expressed as a percent inhibition of the control enzyme activity.

Chain of human PRMT5 complex enzyme (O14744 whole entry): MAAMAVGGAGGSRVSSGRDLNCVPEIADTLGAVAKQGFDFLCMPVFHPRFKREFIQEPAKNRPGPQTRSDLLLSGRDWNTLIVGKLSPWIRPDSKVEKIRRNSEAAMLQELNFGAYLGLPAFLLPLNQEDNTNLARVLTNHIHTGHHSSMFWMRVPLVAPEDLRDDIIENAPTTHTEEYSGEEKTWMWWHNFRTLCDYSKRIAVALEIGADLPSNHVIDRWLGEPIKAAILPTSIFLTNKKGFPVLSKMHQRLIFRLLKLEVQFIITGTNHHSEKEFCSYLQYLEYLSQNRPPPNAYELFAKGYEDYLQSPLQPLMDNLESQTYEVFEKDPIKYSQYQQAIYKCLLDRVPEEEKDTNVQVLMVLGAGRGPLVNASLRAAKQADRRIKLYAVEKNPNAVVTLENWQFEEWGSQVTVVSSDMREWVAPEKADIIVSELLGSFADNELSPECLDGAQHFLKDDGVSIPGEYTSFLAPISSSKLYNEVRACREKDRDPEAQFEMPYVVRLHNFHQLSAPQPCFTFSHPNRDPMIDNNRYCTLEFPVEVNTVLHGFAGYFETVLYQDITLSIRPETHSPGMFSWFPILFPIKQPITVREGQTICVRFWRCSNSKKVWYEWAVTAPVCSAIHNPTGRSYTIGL
Chain of human PRMT5 complex enzyme (Q9BQA1 whole entry partner): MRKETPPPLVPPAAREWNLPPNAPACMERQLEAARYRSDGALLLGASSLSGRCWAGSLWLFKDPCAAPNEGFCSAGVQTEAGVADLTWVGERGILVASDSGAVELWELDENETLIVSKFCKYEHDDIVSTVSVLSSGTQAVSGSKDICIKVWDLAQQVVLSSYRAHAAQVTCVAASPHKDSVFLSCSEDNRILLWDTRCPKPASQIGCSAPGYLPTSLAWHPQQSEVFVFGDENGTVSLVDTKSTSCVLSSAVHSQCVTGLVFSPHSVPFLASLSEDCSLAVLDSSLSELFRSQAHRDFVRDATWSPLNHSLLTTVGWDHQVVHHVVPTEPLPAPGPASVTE

Structure (SMILES) | inhibition at 30 µM [%] | % PRMT5 inhibition at 30 μM [%]
Nc1ncnc2c1ncn2[C@@H]1O[C@@]2(C[C@H]2CO)C(O)C1O (stereo partly drawn) [drawing 332] | 36.4 | –
Nc1ncnc2c1ccn2[C@@H]1O[C@]2(C[C@@H](N)C2)[C@@H](O)[C@H]1O | 46.3 | –
Nc1ncnc2c1ncn2[C@@H]1O[C@]2(C[C@H](O)C2)[C@@H](O)[C@H]1O | 37.7 | –
Nc1ncnc2c1ccn2[C@@H]1C[C@]2(C[C@@H](Cc3ccn4ccnc4c3)C2)[C@@H](O)[C@H]1O | 102 | –
CCCN[C@H]1C[C@]2(C[C@@H](n3cnc4c(N)ncnc43)[C@H](O)[C@@H]2O)C1 | 69.8 | –
Nc1ncnc2c1ncn2[C@@H]1O[C@]2(C[C@H]2CO)C(O)C1O (stereo partly drawn) | 31 | –
CCCN[C@H]1C[C@]2(C1)O[C@@H](n1cnc3c(N)ncnc31)[C@H](O)[C@@H]2O | 33.8 | –
Nc1ncnc2c1ncn2[C@@H]1O[C@@]2(C[C@H]2CO)C(O)C1O (stereo partly drawn) [drawing 333] | – | 55.9
NC[C@H]1C[C@]12O[C@@H](n1cnc3c(N)ncnc31)C(O)C2O (stereo partly drawn) | 79 | –
Nc1ncnc2c1ccn2[C@@H]1C[C@]2(C[C@@H](Cc3cccnc3)C2)[C@@H](O)[C@H]1O | 99.8 | –
Nc1ncnc2c1ncn2[C@@H]1O[C@@]2(C[C@H]2O)C(O)C1O (stereo partly drawn) | 72 | –
CCCN(C)C[C@H]1C[C@]12O[C@@H](n1cnc3c(N)ncnc31)C(O)C2O (stereo partly drawn) | 16 | –
Nc1ncnc2c1ncn2[C@@H]1O[C@]2(C[C@@H]2CO)C(O)C1O (stereo partly drawn) | 84 | –
Nc1ncnc2c1ncn2[C@@H]1O[C@]2(C[C@@H](O)C2)[C@@H](O)[C@H]1O | 70.3 | –
CCCNC[C@H]1C[C@]12O[C@@H](n1cnc3c(N)ncnc31)C(O)C2O (stereo partly drawn) | 39 | –
Nc1ncnc2c1ncn2[C@@H]1O[C@@]2(CC[C@H]2O)C(O)C1O (stereo partly drawn) | 98 | –
Nc1ncnc2c1ncn2[C@@H]1O[C@@]2(CC[C@@H]2O)C(O)C1O (stereo partly drawn) | 42 | –
Nc1ncnc2c1ncn2[C@@H]1O[C@@]2(C[C@@H]2CO)C(O)C1O (stereo partly drawn) | 29 | –
Nc1ncnc2c1ccn2[C@@H]1C[C@]2(C[C@H](Cc3cccnc3)C2)[C@@H](O)[C@H]1O | 100 | –
